Assay results taken from ChEMBL document CHEMBL4507294, “Data for DCP probe MSD-CYP11B2” (2021).

Assays:
[1] = target: Cyclin-dependent kinase 4 (Homo sapiens) (UniProt P11802); settings: Compound concentration 1000.0 nM
[2] = target: Serine/threonine-protein kinase PLK3 (Homo sapiens) (UniProt Q9H4B4); settings: Compound concentration 1000.0 nM
[3] = target: Ephrin type-A receptor 8 (Homo sapiens) (UniProt P29322); settings: Compound concentration 1000.0 nM
[4] = target: SNF-related serine/threonine-protein kinase (Homo sapiens) (UniProt Q9NRH2); settings: Compound concentration 1000.0 nM
[5] = target: Phosphorylase b kinase regulatory subunit alpha, liver isoform (Homo sapiens) (UniProt P46019); settings: Compound concentration 1000.0 nM
Phosphorylase b kinase regulatory subunit alpha, liver isoform (Homo sapiens), sequence (P46019 whole entry, canonical isoform): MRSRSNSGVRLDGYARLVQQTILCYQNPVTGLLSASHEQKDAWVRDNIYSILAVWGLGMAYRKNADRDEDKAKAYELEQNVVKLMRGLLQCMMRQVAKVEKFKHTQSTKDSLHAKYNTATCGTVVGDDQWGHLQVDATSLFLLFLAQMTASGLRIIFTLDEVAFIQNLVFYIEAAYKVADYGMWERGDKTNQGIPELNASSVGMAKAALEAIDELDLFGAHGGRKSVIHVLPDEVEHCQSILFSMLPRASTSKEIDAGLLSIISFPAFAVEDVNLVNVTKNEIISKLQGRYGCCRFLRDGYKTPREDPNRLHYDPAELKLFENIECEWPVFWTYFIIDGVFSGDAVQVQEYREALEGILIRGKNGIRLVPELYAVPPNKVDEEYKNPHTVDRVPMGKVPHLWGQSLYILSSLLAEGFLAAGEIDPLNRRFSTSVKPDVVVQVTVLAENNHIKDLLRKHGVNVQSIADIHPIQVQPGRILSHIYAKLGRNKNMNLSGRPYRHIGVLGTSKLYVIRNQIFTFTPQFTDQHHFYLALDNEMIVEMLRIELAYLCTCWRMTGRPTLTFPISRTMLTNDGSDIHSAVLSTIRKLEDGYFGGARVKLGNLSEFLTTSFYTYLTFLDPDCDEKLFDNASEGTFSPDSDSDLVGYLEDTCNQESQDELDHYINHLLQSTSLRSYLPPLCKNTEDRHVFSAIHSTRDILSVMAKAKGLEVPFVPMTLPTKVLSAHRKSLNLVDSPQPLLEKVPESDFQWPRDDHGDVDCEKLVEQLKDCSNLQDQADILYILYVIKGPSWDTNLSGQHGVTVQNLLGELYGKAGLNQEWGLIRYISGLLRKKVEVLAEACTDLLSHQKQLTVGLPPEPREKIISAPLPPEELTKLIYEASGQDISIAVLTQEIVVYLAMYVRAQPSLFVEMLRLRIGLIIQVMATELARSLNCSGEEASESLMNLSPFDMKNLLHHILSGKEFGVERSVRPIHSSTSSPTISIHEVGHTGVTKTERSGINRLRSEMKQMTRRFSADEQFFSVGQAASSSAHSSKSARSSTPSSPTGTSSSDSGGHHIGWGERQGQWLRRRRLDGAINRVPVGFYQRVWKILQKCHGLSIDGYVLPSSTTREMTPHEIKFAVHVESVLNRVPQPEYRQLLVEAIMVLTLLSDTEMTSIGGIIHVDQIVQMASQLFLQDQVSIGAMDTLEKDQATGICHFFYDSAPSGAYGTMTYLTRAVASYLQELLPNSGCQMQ

[6] = target: Ephrin type-A receptor 6 (Homo sapiens) (UniProt Q9UF33); settings: Compound concentration 1000.0 nM
[7] = target: Mitogen-activated protein kinase kinase kinase 4 (Homo sapiens) (UniProt Q9Y6R4); settings: Compound concentration 1000.0 nM
[8] = target: Dual specificity testis-specific protein kinase 1 (Homo sapiens) (UniProt Q15569); settings: Compound concentration 1000.0 nM
Dual specificity testis-specific protein kinase 1 (Homo sapiens), sequence (Q15569 whole entry, looked up): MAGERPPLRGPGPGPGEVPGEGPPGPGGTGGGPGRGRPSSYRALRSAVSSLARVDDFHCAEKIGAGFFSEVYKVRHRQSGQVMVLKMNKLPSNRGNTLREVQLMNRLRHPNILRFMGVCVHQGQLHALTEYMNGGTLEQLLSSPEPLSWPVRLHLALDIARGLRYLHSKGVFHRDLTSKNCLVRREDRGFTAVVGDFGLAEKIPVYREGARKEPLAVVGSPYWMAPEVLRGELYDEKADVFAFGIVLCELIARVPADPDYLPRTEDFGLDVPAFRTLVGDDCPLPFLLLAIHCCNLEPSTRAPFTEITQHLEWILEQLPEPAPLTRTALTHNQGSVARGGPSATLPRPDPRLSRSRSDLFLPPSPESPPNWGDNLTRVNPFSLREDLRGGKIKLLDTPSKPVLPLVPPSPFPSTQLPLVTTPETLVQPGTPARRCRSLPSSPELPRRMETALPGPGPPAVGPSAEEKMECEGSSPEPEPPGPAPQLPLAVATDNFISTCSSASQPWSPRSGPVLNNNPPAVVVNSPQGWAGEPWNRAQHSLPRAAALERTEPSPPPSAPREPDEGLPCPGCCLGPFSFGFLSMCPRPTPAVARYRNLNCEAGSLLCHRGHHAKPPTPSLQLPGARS

[9] = target: Serine/threonine-protein kinase Sgk2 (Homo sapiens) (UniProt Q9HBY8); settings: Compound concentration 1000.0 nM
[10] = target: Serine/threonine-protein kinase SIK1 (Homo sapiens) (UniProt P57059); settings: Compound concentration 1000.0 nM
[11] = target: Calcium-dependent protein kinase 1 (Plasmodium falciparum) (UniProt P62344); settings: Compound concentration 1000.0 nM
[12] = target: Dual specificity mitogen-activated protein kinase kinase 6 (Homo sapiens) (UniProt P52564); settings: Compound concentration 1000.0 nM
[13] = target: Ribosomal protein S6 kinase alpha-6 (Homo sapiens) (UniProt Q9UK32); settings: Compound concentration 1000.0 nM
[14] = target: Mitogen-activated protein kinase kinase kinase kinase 4 (Homo sapiens) (UniProt O95819); settings: Compound concentration 1000.0 nM
[15] = target: TGF-beta receptor type-2 (Homo sapiens) (UniProt P37173); settings: Compound concentration 1000.0 nM
TGF-beta receptor type-2 (Homo sapiens), sequence (P37173 whole entry): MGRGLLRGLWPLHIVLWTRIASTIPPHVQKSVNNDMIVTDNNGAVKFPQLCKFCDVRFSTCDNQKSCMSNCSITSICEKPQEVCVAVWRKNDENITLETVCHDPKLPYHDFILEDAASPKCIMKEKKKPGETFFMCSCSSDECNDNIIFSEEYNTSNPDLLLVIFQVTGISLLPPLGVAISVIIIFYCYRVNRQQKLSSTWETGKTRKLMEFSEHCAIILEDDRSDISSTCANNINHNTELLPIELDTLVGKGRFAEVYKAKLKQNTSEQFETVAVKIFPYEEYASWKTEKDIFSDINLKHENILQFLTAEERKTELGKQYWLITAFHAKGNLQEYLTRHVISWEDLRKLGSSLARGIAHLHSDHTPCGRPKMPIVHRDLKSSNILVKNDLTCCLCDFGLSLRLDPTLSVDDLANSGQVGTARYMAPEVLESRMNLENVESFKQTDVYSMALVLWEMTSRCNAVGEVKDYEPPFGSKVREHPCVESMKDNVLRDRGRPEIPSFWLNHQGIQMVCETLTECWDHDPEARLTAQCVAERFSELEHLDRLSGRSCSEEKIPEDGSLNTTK

[16] = target: Serine/threonine-protein kinase PLK1 (Homo sapiens) (UniProt P53350); settings: Compound concentration 1000.0 nM
[17] = target: Dual specificity tyrosine-phosphorylation-regulated kinase 2 (Homo sapiens) (UniProt Q92630); settings: Compound concentration 1000.0 nM
Dual specificity tyrosine-phosphorylation-regulated kinase 2 (Homo sapiens), sequence (Q92630 whole entry): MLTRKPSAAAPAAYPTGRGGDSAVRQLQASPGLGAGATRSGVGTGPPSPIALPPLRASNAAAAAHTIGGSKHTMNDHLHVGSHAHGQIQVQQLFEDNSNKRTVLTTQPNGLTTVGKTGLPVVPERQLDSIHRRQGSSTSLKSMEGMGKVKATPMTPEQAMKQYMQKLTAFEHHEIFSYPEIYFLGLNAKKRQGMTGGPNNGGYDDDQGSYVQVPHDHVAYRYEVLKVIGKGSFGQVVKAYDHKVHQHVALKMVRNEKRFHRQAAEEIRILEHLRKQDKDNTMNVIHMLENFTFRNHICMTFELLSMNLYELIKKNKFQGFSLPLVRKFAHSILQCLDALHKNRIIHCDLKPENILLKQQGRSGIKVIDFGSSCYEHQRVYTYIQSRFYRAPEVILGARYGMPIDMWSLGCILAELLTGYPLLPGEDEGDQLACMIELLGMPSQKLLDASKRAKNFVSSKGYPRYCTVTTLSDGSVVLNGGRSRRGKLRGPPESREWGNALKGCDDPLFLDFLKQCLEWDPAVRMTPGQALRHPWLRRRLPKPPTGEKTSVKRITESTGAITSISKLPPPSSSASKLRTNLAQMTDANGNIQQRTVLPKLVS

[18] = target: Myosin-IIIb (Homo sapiens) (UniProt Q8WXR4); settings: Compound concentration 1000.0 nM
[19] = target: Mitogen-activated protein kinase kinase kinase 20 (Homo sapiens) (UniProt Q9NYL2); settings: Compound concentration 1000.0 nM
[20] = target: Dual specificity protein kinase TTK (Homo sapiens) (UniProt P33981); settings: Compound concentration 1000.0 nM
Dual specificity protein kinase TTK (Homo sapiens), sequence (P33981 whole entry): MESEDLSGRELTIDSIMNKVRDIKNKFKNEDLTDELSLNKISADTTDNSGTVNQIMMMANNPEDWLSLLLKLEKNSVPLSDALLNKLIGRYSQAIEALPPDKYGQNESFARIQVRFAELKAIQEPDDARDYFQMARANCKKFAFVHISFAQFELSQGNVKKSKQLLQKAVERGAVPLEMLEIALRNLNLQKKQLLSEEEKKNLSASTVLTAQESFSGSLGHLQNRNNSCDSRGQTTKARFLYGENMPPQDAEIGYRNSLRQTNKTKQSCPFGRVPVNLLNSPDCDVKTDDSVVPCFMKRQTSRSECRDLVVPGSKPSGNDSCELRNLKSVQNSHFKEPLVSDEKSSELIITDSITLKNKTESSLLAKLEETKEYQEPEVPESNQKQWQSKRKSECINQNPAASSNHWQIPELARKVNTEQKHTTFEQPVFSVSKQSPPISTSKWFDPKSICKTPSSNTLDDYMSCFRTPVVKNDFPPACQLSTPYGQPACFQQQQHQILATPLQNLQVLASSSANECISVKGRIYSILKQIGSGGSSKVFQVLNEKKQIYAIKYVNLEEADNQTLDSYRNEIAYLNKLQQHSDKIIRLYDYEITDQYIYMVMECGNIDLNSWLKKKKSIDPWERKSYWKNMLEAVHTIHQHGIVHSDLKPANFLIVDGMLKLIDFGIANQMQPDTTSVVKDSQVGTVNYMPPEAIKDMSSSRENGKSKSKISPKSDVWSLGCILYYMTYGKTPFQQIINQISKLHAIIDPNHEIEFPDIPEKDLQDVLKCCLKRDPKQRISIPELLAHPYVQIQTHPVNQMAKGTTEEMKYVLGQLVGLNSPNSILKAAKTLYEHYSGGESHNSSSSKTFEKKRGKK

[21] = target: Serine/threonine-protein kinase mTOR (Homo sapiens) (UniProt P42345); settings: Compound concentration 1000.0 nM
[22] = test system: Tyrosine-protein kinase ABL1 (Homo sapiens), P00519 [F317L]; settings: Compound concentration 1000.0 nM
[23] = test system: Tyrosine-protein kinase ABL1 (Homo sapiens), P00519 [E255K]; settings: Compound concentration 1000.0 nM
[24] = target: Activin receptor type-2B (Homo sapiens) (UniProt Q13705); settings: Compound concentration 1000.0 nM
[25] = target: Mitogen-activated protein kinase 8 (Homo sapiens) (UniProt P45983); settings: Compound concentration 1000.0 nM
[26] = target: Sigma intracellular receptor 2 (Homo sapiens) (UniProt Q5BJF2); settings: Compound concentration 10.0 uM
[27] = target: Mitogen-activated protein kinase 12 (Homo sapiens) (UniProt P53778); settings: Compound concentration 1000.0 nM
[28] = target: Hormonally up-regulated neu tumor-associated kinase (Homo sapiens) (UniProt P57058); settings: Compound concentration 1000.0 nM
Hormonally up-regulated neu tumor-associated kinase (Homo sapiens), sequence (P57058 whole entry): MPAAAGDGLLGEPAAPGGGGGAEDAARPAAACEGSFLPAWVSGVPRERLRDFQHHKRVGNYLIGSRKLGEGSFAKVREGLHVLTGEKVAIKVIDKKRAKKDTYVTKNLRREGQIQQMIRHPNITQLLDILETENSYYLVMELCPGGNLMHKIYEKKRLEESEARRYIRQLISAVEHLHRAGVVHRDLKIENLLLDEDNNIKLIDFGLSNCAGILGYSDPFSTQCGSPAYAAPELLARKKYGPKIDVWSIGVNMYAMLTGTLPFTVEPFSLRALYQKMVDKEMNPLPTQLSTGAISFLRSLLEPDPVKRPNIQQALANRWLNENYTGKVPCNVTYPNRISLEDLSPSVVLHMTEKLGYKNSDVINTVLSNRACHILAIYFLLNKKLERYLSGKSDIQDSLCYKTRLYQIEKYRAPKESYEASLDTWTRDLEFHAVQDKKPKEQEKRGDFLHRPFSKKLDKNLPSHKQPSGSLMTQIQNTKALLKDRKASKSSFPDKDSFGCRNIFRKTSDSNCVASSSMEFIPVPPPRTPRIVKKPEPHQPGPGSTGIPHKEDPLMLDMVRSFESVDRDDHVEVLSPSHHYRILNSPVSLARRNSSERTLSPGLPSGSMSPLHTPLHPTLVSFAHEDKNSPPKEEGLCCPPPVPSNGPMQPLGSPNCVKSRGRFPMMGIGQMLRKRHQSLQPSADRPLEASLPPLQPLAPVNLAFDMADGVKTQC

[29] = target: Calcium/calmodulin-dependent protein kinase type II subunit alpha (Homo sapiens) (UniProt Q9UQM7); settings: Compound concentration 1000.0 nM
Calcium/calmodulin-dependent protein kinase type II subunit alpha (Homo sapiens), sequence (Q9UQM7 whole entry): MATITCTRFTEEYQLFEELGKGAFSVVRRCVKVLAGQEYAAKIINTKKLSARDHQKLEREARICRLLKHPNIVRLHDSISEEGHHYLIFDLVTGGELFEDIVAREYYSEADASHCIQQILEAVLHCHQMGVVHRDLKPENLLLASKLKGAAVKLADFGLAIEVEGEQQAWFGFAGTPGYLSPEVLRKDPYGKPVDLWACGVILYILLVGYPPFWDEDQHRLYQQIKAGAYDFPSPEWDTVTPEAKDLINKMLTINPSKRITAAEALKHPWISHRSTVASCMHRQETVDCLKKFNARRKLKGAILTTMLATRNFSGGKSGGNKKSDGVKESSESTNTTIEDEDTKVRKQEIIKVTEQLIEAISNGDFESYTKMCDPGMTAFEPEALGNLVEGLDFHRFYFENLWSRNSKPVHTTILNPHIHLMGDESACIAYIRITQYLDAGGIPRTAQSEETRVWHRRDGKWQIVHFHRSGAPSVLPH

[30] = test system: Epidermal growth factor receptor (Homo sapiens), P00533 [G719S]; settings: Compound concentration 1000.0 nM
[31] = target: Calcium/calmodulin-dependent protein kinase type II subunit delta (Homo sapiens) (UniProt Q13557); settings: Compound concentration 1000.0 nM
[32] = target: D(4) dopamine receptor (Homo sapiens) (UniProt P21917); settings: Compound concentration 10.0 uM
[33] = target: Tyrosine-protein kinase receptor UFO (Homo sapiens) (UniProt P30530); settings: Compound concentration 1000.0 nM
[34] = target: Cyclin-dependent kinase 2 homolog (Plasmodium falciparum (isolate 3D7)) (UniProt P61075); settings: Compound concentration 1000.0 nM
[35] = target: Mitogen-activated protein kinase kinase kinase kinase 5 (Homo sapiens) (UniProt Q9Y4K4); settings: Compound concentration 1000.0 nM
[36] = test system: Receptor-type tyrosine-protein kinase FLT3 (Homo sapiens), P36888 [D835V]; settings: Compound concentration 1000.0 nM
[37] = target: Serine/threonine-protein kinase MRCK gamma (Homo sapiens) (UniProt Q6DT37); settings: Compound concentration 1000.0 nM
[38] = target: Cyclin-dependent kinase 5 (Homo sapiens) (UniProt Q00535); settings: Compound concentration 1000.0 nM
[39] = target: Insulin receptor (Homo sapiens) (UniProt P06213); settings: Compound concentration 1000.0 nM
[40] = target: Cyclin-dependent kinase 11A (Homo sapiens) (UniProt Q9UQ88); settings: Compound concentration 1000.0 nM
[41] = target: Tyrosine-protein kinase receptor TYRO3 (Homo sapiens) (UniProt Q06418); settings: Compound concentration 1000.0 nM
[42] = target: Ribosomal protein S6 kinase alpha-2 (Homo sapiens) (UniProt Q15349); settings: Compound concentration 1000.0 nM
[43] = test system: Mast/stem cell growth factor receptor Kit (Homo sapiens), P10721 [A829P]; settings: Compound concentration 1000.0 nM
[44] = target: NUAK family SNF1-like kinase 1 (Homo sapiens) (UniProt O60285); settings: Compound concentration 1000.0 nM
[45] = target: Serine/threonine-protein kinase SIK2 (Homo sapiens) (UniProt Q9H0K1); settings: Compound concentration 1000.0 nM

FC(F)(F)c1ccc2c(c1)nc(-c1cccnc1)n2C1CC1 [MSD-CYP11B2-Negative-control]
inactive: residual activity [1] 100% | residual activity [2] 100% | residual activity [3] 100% | residual activity [4] 82% | residual activity [5] 100% | residual activity [6] 100% | residual activity [7] 100% | residual activity [8] 100% | residual activity [9] 100% | residual activity [10] 100% | residual activity [11] 100% | residual activity [12] 98% | residual activity [13] 100% | residual activity [14] 100% | residual activity [15] 100% | residual activity [16] 96% | residual activity [17] 100% | residual activity [18] 67% | residual activity [19] 100% | residual activity [20] 100% | residual activity [21] 80% | residual activity [22] 100% | residual activity [23] 100% | residual activity [24] 100% | residual activity [25] 93% | inhibition [26] 26.5% | residual activity [27] 100% | residual activity [28] 100% | residual activity [29] 88% | residual activity [30] 93% | residual activity [31] 100% | inhibition [32] -3.28% | residual activity [33] 100% | residual activity [34] 100% | residual activity [35] 100% | residual activity [36] 92% | residual activity [37] 100% | residual activity [38] 100% | residual activity [39] 100% | residual activity [40] 100% | residual activity [41] 100% | residual activity [42] 100% | residual activity [43] 100% | residual activity [44] 100% | residual activity [45] 100%

CC(C)(O)c1cncc(-c2nc3ccc(F)cc3n2C2CC2)c1 [MSD-CYP11B2]
inactive: residual activity [1] 100% | residual activity [2] 100% | residual activity [3] 100% | residual activity [4] 86% | residual activity [5] 100% | residual activity [6] 100% | residual activity [7] 100% | residual activity [8] 100% | residual activity [9] 100% | residual activity [10] 100% | residual activity [11] 100% | residual activity [12] 100% | residual activity [13] 100% | residual activity [14] 72% | residual activity [15] 100% | residual activity [16] 100% | residual activity [17] 100% | residual activity [18] 71% | residual activity [19] 100% | residual activity [20] 100% | residual activity [21] 96% | residual activity [22] 100% | residual activity [23] 100% | residual activity [24] 85% | residual activity [25] 100% | inhibition [26] 22.7% | residual activity [27] 88% | residual activity [28] 100% | residual activity [29] 94% | residual activity [30] 100% | residual activity [31] 100% | inhibition [32] -5.72% | residual activity [33] 100% | residual activity [34] 100% | residual activity [35] 92% | residual activity [36] 96% | residual activity [37] 100% | residual activity [38] 100% | residual activity [39] 100% | residual activity [40] 100% | residual activity [41] 100% | residual activity [42] 100% | residual activity [43] 100% | residual activity [44] 100% | residual activity [45] 100%
